Laboratory results published in PubChem BioAssay (NCI).
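Grown in 96-well plates, cells were treated for 48 hours with each compound at five concentrations. Insufficient inhibition: endpoint recorded as highest concentration tested. TGI marks complete inhibition of growth.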

Assays:
Experiment in all cases: inhibition of tumour cell growth, NCI panel, 48 h
[1] = test system: SNB-75 CNS
[2] = test system: XF 498 CNS
[3] = test system: UACC-257 melanoma
[4] = test system: ACHN renal
[5] = test system: SK-MEL-2 melanoma
[6] = test system: HT29 colon
[7] = test system: TK-10 renal
[8] = test system: UACC-62 melanoma
[9] = test system: IGROV1 ovarian
[10] = test system: SF-268 CNS
[11] = test system: SW-620 colon
[12] = test system: NCI-H522 lung
[13] = test system: NCI-H460 lung
[14] = test system: OVCAR-3 ovarian
[15] = test system: HL-60(TB) leukemia
[16] = test system: LXFL 529 NSCLC
[17] = test system: OVCAR-5 ovarian
[18] = test system: KM12 colon
[19] = test system: NCI-H23 lung
[20] = test system: 786-0 renal
[21] = test system: EKVX NSCLC
[22] = test system: RXF-631 renal
[23] = test system: MOLT-4 leukemia
[24] = test system: HOP-18 NSCLC
[25] = test system: UO-31 renal
[26] = test system: CAKI-1 renal
[27] = test system: M19-MEL melanoma
[28] = test system: SNB-78 CNS
[29] = test system: HOP-62 NSCLC
[30] = test system: KM20L2 colon
[31] = test system: MALME-3M melanoma
[32] = test system: CCRF-CEM leukemia
[33] = test system: HOP-92 NSCLC
[34] = test system: SNB-19 CNS
[35] = test system: LOX IMVI melanoma
[36] = test system: RPMI-8226 leukemia
[37] = test system: K-562 leukemia
[38] = test system: U251 CNS
[39] = test system: HCT-15 colon
[40] = test system: OVCAR-4 ovarian
[41] = test system: A549 NSCLC
[42] = test system: SF-539 CNS
[43] = test system: DLD-1 colon
[44] = test system: HCT-116 colon
[45] = test system: COLO 205 colon
[46] = test system: SK-OV-3 ovarian
[47] = test system: SK-MEL-28 melanoma
[48] = test system: M14 melanoma
[49] = test system: SF-295 CNS
[50] = test system: SR leukemia
[51] = test system: OVCAR-8 ovarian
[52] = test system: SN12C renal
[53] = test system: NCI-H226 lung
[54] = test system: HCC-2998 colon
[55] = test system: DMS 273 small cell lung
[56] = test system: A498 renal
[57] = test system: RXF 393 renal

CN(C)CCn1c2c3ccccc3ccc2c2oc(=O)c3ccccc3c21 was tested. Which TGI [1] did it give?
The TGI was 9.94 µM.

What about the TGI [2] of the same molecule?
Its TGI is 30.1 µM.

What about the TGI [3] of the same molecule?
Its TGI is 16.4 µM.

What about the TGI [4] of the same molecule?
Its TGI is 18.4 µM.

What about the TGI [5] of the same molecule?
The TGI was 35 µM.

And the TGI [6]?
Its TGI is 16.6 µM.

And the TGI [7]?
The TGI was 25.1 µM.

And the TGI [8]?
The TGI was 71 µM.

What about the TGI [9] of the same molecule?
The TGI was 55.5 µM.

And the TGI [10]?
Its TGI is 7.86 µM.

What about the TGI [11] of the same molecule?
The TGI was 32.4 µM.

And the TGI [12]?
The TGI was 27.6 µM.

And the TGI [13]?
Its TGI is 13.4 µM.

What about the TGI [14] of the same molecule?
The TGI was 16.9 µM.

What about the TGI [15] of the same molecule?
Its TGI is over 100 µM.

And the TGI [16]?
Its TGI is 17.2 µM.

What about the TGI [17] of the same molecule?
Its TGI is 90.4 µM.

What about the TGI [18] of the same molecule?
The TGI was 37 µM.

What about the TGI [19] of the same molecule?
Its TGI is 18.9 µM.

What about the TGI [20] of the same molecule?
Its TGI is 7.14 µM.

And the TGI [21]?
Its TGI is 36.4 µM.

What about the TGI [22] of the same molecule?
Its TGI is 31.5 µM.

And the TGI [23]?
The TGI was 7.25 µM.

And the TGI [24]?
The TGI was 35.3 µM.

And the TGI [25]?
The TGI was 8.94 µM.

What about the TGI [26] of the same molecule?
Its TGI is 25.9 µM.

What about the TGI [27] of the same molecule?
Its TGI is 25 µM.

What about the TGI [28] of the same molecule?
Its TGI is 48.1 µM.

And the TGI [29]?
The TGI was 28.3 µM.

And the TGI [30]?
The TGI was 33.8 µM.

What about the TGI [31] of the same molecule?
Its TGI is 26.3 µM.

What about the TGI [32] of the same molecule?
The TGI was over 100 µM.

What about the TGI [33] of the same molecule?
Its TGI is 17.6 µM.

What about the TGI [34] of the same molecule?
The TGI was 29.4 µM.

And the TGI [35]?
Its TGI is 27.7 µM.

And the TGI [36]?
The TGI was 43.2 µM.

And the TGI [37]?
Its TGI is over 100 µM.

And the TGI [38]?
The TGI was 20 µM.

And the TGI [39]?
Its TGI is 46.9 µM.

And the TGI [40]?
The TGI was 28.1 µM.

And the TGI [41]?
Its TGI is 15.3 µM.

And the TGI [42]?
The TGI was 7.1 µM.

What about the TGI [43] of the same molecule?
The TGI was over 100 µM.

What about the TGI [44] of the same molecule?
The TGI was 29.1 µM.

And the TGI [45]?
The TGI was over 100 µM.

What about the TGI [46] of the same molecule?
The TGI was 7.35 µM.

What about the TGI [47] of the same molecule?
Its TGI is 18.4 µM.

What about the TGI [48] of the same molecule?
Its TGI is 19.1 µM.

What about the TGI [49] of the same molecule?
The TGI was 20.8 µM.

With NC(=O)c1ccccc1NC(=O)C(=O)C(C(=O)c1ccc(Cl)c(Cl)c1)C1OC(=O)c2ccccc21 (centres undefined) as the molecule, how does the TGI [1] read?
The TGI was 83.2 µM.

And the TGI [2]?
Its TGI is over 100 µM.

And the TGI [3]?
Its TGI is over 100 µM.

And the TGI [4]?
Its TGI is over 100 µM.

What about the TGI [50] of the same molecule?
Its TGI is over 100 µM.

What about the TGI [6] of the same molecule?
The TGI was over 100 µM.

And the TGI [8]?
The TGI was over 100 µM.

What about the TGI [51] of the same molecule?
Its TGI is over 100 µM.

What about the TGI [9] of the same molecule?
The TGI was over 100 µM.

What about the TGI [10] of the same molecule?
The TGI was over 100 µM.

What about the TGI [11] of the same molecule?
Its TGI is over 100 µM.

What about the TGI [52] of the same molecule?
The TGI was over 100 µM.

And the TGI [14]?
The TGI was over 100 µM.

What about the TGI [15] of the same molecule?
The TGI was over 100 µM.

What about the TGI [16] of the same molecule?
The TGI was over 100 µM.

And the TGI [17]?
Its TGI is over 100 µM.

What about the TGI [18] of the same molecule?
The TGI was over 100 µM.

What about the TGI [19] of the same molecule?
Its TGI is over 100 µM.

And the TGI [20]?
Its TGI is over 100 µM.

And the TGI [53]?
Its TGI is 56.3 µM.

What about the TGI [21] of the same molecule?
Its TGI is over 100 µM.

And the TGI [23]?
The TGI was over 100 µM.

What about the TGI [24] of the same molecule?
Its TGI is over 100 µM.

What about the TGI [26] of the same molecule?
Its TGI is over 100 µM.

What about the TGI [28] of the same molecule?
The TGI was over 100 µM.

And the TGI [29]?
The TGI was over 100 µM.

What about the TGI [30] of the same molecule?
Its TGI is over 100 µM.

And the TGI [54]?
Its TGI is over 100 µM.

What about the TGI [31] of the same molecule?
Its TGI is 80.4 µM.

What about the TGI [32] of the same molecule?
The TGI was over 100 µM.

What about the TGI [33] of the same molecule?
The TGI was over 100 µM.

What about the TGI [34] of the same molecule?
The TGI was over 100 µM.

What about the TGI [55] of the same molecule?
The TGI was over 100 µM.

What about the TGI [36] of the same molecule?
The TGI was over 100 µM.

What about the TGI [37] of the same molecule?
The TGI was over 100 µM.

And the TGI [38]?
Its TGI is over 100 µM.

And the TGI [39]?
Its TGI is over 100 µM.

What about the TGI [40] of the same molecule?
Its TGI is over 100 µM.

What about the TGI [41] of the same molecule?
The TGI was over 100 µM.

And the TGI [43]?
Its TGI is over 100 µM.

And the TGI [44]?
Its TGI is 39 µM.

And the TGI [45]?
Its TGI is over 100 µM.

What about the TGI [56] of the same molecule?
Its TGI is over 100 µM.

What about the TGI [48] of the same molecule?
The TGI was over 100 µM.

What about the TGI [57] of the same molecule?
The TGI was 45.7 µM.
